Measurements published in the supplement of paper PMC10307832.

Key:
Test in all cases: relative viability (nuclei count vs DMSO), 5 days (fraction); higher = more cells survive
[1] = compound: CCn1c(-c2nonc2N)nc2cnc(Oc3cccc(NC(=O)c4ccc(OCCN5CCOCC5)cc4)c3)cc21 + O=C(CCCCCCC(=O)Nc1ccccc1)NO [Vorinostat] (partner 1 µM)
Summary of the method: (§1)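 Medians of duplicate plates are given as relative viability. That measure is the nuclei count in treated wells divided by the count in vehicle wells. Counts were taken on 4× images of lung cancer cell lines in 1536-well plates, 5 days after pin-tool dosing the day after seeding with one drug alone or a fixed anchor-drug dose plus five library-drug doses (not always all listed) in √10 steps.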

[2] = compound: CCC1=CN=CN=C1N2CCN(CC2)CC3=NC4=C(N3)C=C(C=C4)C(F)(F)F + CC1(C)CCC(c2ccc(Cl)cc2)=C(CN2CCN(c3ccc(C(=O)NS(=O)(=O)c4ccc(N[C@H](CCN5CCOCC5)CSc5ccccc5)c(S(=O)(=O)C(F)(F)F)c4)cc3)CC2)C1 [Navitoclax] (partner 0.5 µM)
Summary of the method: as §1

[3] = compound: CCC1=CN=CN=C1N2CCN(CC2)CC3=NC4=C(N3)C=C(C=C4)C(F)(F)F + O=C(CCCCCCC(=O)Nc1ccccc1)NO [Vorinostat] (partner 1 µM)
Summary of the method: as §1

Cell Line	relative viability ([1]; first compound 0.04 µM)	relative viability ([1]; first compound 0.1265 µM)	relative viability ([1]; first compound 0.4 µM)	relative viability ([1]; first compound 1.265 µM)	relative viability ([1]; first compound 4 µM)	relative viability ([2]; first compound 0.04 µM)	relative viability ([2]; first compound 0.1265 µM)	relative viability ([2]; first compound 0.4 µM)	relative viability ([2]; first compound 1.265 µM)	relative viability ([2]; first compound 4 µM)	relative viability ([3]; first compound 0.04 µM)	relative viability ([3]; first compound 0.1265 µM)	relative viability ([3]; first compound 0.4 µM)	relative viability ([3]; first compound 1.265 µM)	relative viability ([3]; first compound 4 µM)
NCI-H1437	0.88	0.93	0.903	0.682	0.512	1.09	1	0.944	0.822	0.724	0.915	0.748	0.745	0.64	0.5
NCI-H1650	0.666	0.59	0.562	0.596	0.528	1.26	1.08	1.22	1.02	1.4	0.635	0.73	0.503	0.359	0.636
NCI-H1651	0.604	0.639	0.467	0.292	0.497	1.06	0.875	1.04	0.941	1.01	0.615	0.56	0.542	0.506	0.584
NCI-H1666	1.13	1.05	1.12	1.05	1.03	0.975	0.836	0.962	0.817	0.846	1.04	1.04	0.843	0.922	0.994
NCI-H1734	0.937	0.838	0.586	0.412	0.399	0.852	0.839	0.856	–	0.907	0.734	0.803	0.783	0.7	0.814
NCI-H1755	0.843	0.796	0.615	0.577	0.506	1.01	0.947	0.955	0.606	0.889	0.741	0.699	0.641	0.514	0.827
NCI-H1793	0.721	0.712	0.602	0.424	0.496	0.381	0.447	0.363	–	0.435	0.568	0.668	0.531	0.536	0.647
NCI-H1915	0.507	0.52	0.472	0.244	0.225	0.819	0.735	0.847	0.722	0.809	0.591	0.51	0.496	0.492	0.559
NCI-H1944	0.662	0.572	0.463	0.481	0.261	0.97	0.948	1	–	0.916	0.664	0.441	0.663	0.384	0.524
NCI-H1975	0.666	0.623	0.554	0.37	0.273	1.15	1.08	1.06	0.879	0.931	0.796	0.703	0.704	0.654	0.687
NCI-H1993	0.991	0.764	0.649	0.697	0.697	1.16	0.934	0.792	0.817	0.778	0.846	0.983	0.648	0.816	0.964
NCI-H2009	0.632	0.582	0.56	0.429	0.277	1.19	1.16	1.09	1.1	1.09	0.775	0.698	0.753	0.61	0.639
NCI-H2023	1.02	0.675	0.669	0.429	0.334	0.987	0.941	0.962	1.03	1.12	0.561	0.575	0.649	0.556	0.776
NCI-H2085	0.735	0.633	0.579	0.54	0.585	1.11	1.02	1.21	1.18	0.911	0.728	0.709	0.697	0.763	0.766
NCI-H2087	0.776	0.584	0.668	0.565	0.509	1.03	0.982	0.914	0.871	0.723	0.929	0.881	0.707	0.659	0.638
NCI-H2126	1.04	0.879	0.608	0.894	0.82	0.818	0.818	0.839	0.794	0.867	0.794	0.781	0.766	0.595	0.742
NCI-H2170	0.797	0.8	0.763	0.538	0.484	0.561	0.69	0.534	0.608	0.608	0.787	0.731	0.778	0.724	0.815
NCI-H2228	0.842	0.524	0.891	0.543	0.456	0.996	0.847	0.979	0.888	0.747	–	0.63	0.587	0.693	0.496
NCI-H2347	0.654	0.656	0.488	0.348	0.427	0.711	0.733	0.783	0.665	0.729	0.61	0.673	0.649	0.321	0.516
NCI-H2405	0.938	0.488	0.264	0.239	0.238	0.86	0.937	0.834	–	0.997	1.03	0.961	0.925	–	1.12
NCI-H3122	1.1	0.971	0.671	0.781	0.61	1.02	0.996	0.997	0.987	1.03	1.04	0.863	1.01	1.03	0.875
PC-3 [JPC-3]	0.919	0.701	0.713	0.549	0.692	0.912	0.781	0.745	0.733	0.775	–	0.737	0.738	0.701	0.885
PC-14	0.912	0.612	0.64	0.554	0.62	1.02	1.03	1.01	0.984	0.982	0.764	0.756	0.688	0.691	0.657
RERF-LC-KJ	0.762	0.728	0.589	0.409	0.521	0.906	0.887	0.956	0.698	0.719	0.638	0.717	0.715	0.634	0.704
SK-LU-1	0.895	0.654	0.593	0.422	0.42	0.78	0.762	0.929	0.697	0.868	0.675	0.74	0.76	0.777	0.68
SK-MES-1	1.22	0.968	0.868	0.819	0.597	1.15	1.22	1.07	1.2	1.31	1.11	1.04	1.01	1.03	1.08
SW 1573	0.966	0.534	0.37	0.304	0.237	0.95	1.09	0.709	0.801	0.891	0.623	1.08	0.756	0.575	0.734
